Test results: patent EP0023569A1, “Derivatives of carboxylic acids, their preparation and medicaments containing them” (Dr. Karl Thomae GmbH, priority 1979, dated 1981)

System: weiblichen und männlichen Mäusen
Test: Acute toxicity in mice after a single oral dose
Format: in vivo
Conditions: observation at least 7 days; for orientierende Toxizität: single dose p.o., suspension in 1% methylcellulose
Description: Bei weiblichen und männlichen Mäusen eigener Zucht mit dem Gewicht von 20-26 g wurde die toxische Wirkung der Substanzen nach oraler Gabe (Suspension in 1%iger Methylcellulose) einer einmaligen Dosis bei einer Nachbeobachtungszeit von mindestens 7 Tagen geprüft. Die nachfolgende Tabelle enthält die gefundenen Werte: […]

[1] = single dose of 2 000 mg/kg p.o.
[2] = single dose of 1 000 mg/kg p.o.

Row | SMILES | Tieren gestorben [1] | orientierende Toxizität | Tieren gestorben [2]
1 | CN(C)c1ccc(Cl)cc1C(=O)NCCc1ccc(C(=O)O)cc1 [A, 4-[2-(5-Chlor-2-dimethylamino-benzoylamino)-äthyl]benzoe-säure] | 0 von 6 | > 2 000 mg/kg | –
2 | CN(C)c1ccc(Br)cc1C(=O)NCCc1ccc(C(=O)O)cc1 [B, 4-[2-(5-Brom-2-dimethylamino-benzoylamino)-äthyl]benzoesäure] | – | > 1 000 mg/kg | 0 von 5
3 | O=C(O)c1ccc(CCNC(=O)c2cc(Cl)ccc2N2CCCCC2)cc1 [D, 4-[2-(5-Chlor-2-piperidino-benzoylamino)-äthy]benzoesäure] | 0 von 6 | > 2 000 mg/kg | –
4 | COC(=O)c1ccc(CCNC(=O)c2cc(Cl)ccc2N2CC(C)CC(C)C2)cc1 (centres unmarked) [H, 4-[2-(5-Chlor-2-(3,5-dimethyl-piperidino)-benzoylamino)-äthy]benzoesäure-methylester] | – | > 1 000 mg/kg | 0 von 6
5 | O=C(O)c1cc(Cl)ccc1N1CCC2(CC1)OCCO2 [KK, 5-Chlor-2-(1,4-dioxa-8-aza-spiro[4,5]decan-8-yl)-benzoe-säure] | 0 von 10 | > 2 000 mg/kg | –
6 | O=C(O)c1ccc(CCNC(=O)c2cc(Cl)ccc2N2CCCCCC2)cc1 [O, 4-[2-(5-Chlor-2-hexamethylenimino-benzoylamino)-äthyl]-benzoesäure] | – | > 1 000 mg/kg | 0 von 10
7 | CC1CN(c2ccc(Cl)cc2C(=O)NCCc2ccc(C(=O)O)cc2)CC(C)O1 (centres unmarked) [T, 4-[-(5-Chlor-2-(2,6-dimethyl-morpholino)-benzoylamino)-äthyl]benzoesäure] | – | > 1 000 mg/kg | 0 von 10
8 | CCOC(=O)c1ccc(CCNC(=O)c2cc(Br)ccc2N2CCCCCCC2)cc1 [V, 4-[2-(5-Brom-2-heptamethylenimino-benzoylamino)-äthyl]benzoesäure-äthylester] | – | > 1 000 mg/kg | 0 von 10
9 | O=C(O)c1ccc(CCNC(=O)c2cc(Br)ccc2N2CCCCCCC2)cc1 [W, 4-[2-(5-Brom-2-heptamethylenimino-benzoylamino)-äthyl]-benzoesäure] | – | > 1 000 mg/kg | 0 von 6
10 | O=C(O)c1ccc(CCNC(=O)c2cc(Cl)ccc2N2CCCCCCCC2)cc1 [X, 4-[2-(5-Chlor-2-octamethylenimino-benzoylamino)-äthyl]-benzoesäure] | – | > 1 000 mg/kg | 0 von 6
